Experiments:
[1] = target: T1, human delta-INPP5K-cd (loop-substituted catalytic domain) (Homo sapiens, UniProt Q9BT40, C280K/DEL284-290/G282N/G299D/H292G/INS279A/L297Q/R298K/S294L/S296T); test: Fluorescence polarization assay to evaluate phosphatase inhibition; assay type: biochemical; conditions: 20 µM diC8-PI(3,4,5)P3, 30 min
T1 construct: human INPP5K catalytic domain (amino acids 1–328, INPP5K-cd, UniProt ID: Q9BT40); His6-MBP (MBP amino acids 1–387) (N, cleaved yes); TEV protease site ENLYFQG (N, cleaved yes); made in house; host or cells: E. coli Rosetta2 (DE3)
Text: (§1) The oligonucleotides used for vector construction were synthesized and purchased from GenScript Inc. (Tokyo, Japan). The cDNA encoding human INPP5K catalytic domain (amino acids 1–328, INPP5K-cd, UniProt ID: Q9BT40), which excluded the SKICH region from the full-length INPP5K sequence, was cloned downstream of MBP (amino acids 1–387) with an N-terminal His6-tag in the pET28 expression vector, a Novagen product (Merck KGaA, Darmstadt, Germany). Between the MBP and INPP5K-cd sequences, the Tobacco Etch Virus protease cleavage site (ENLYFQG) was inserted, such that the MBP–INPP5K-cd fusion protein could be digested by TEV protease during purification. Furthermore, using the Gibson Assembly method, the sequence encoding the amino acids 280–299 ([…]) of INPP5K cd was replaced by the sequence encoding AKANPSGFLLTQKD, which corresponds to the amino acids 283–296 of the rat INPP5K-cd (UniProt ID: Q9R0B6), resulting in the deletion of six amino acid residues (delta-INPP5K-cd). The truncated construct was designed using a comparison between a structure model and the structures of several IP5Pases[9]–[11]. […] The concentration of protein obtained was measured using the Bradford method, with bovine serum albumin as the standard. Fractions corresponding to each purification step were analyzed by SDS-PAGE, followed by staining of the gel with Coomassie brilliant blue R-250. […]

[2] = target: T2, human INPP5K-cd (catalytic domain, 1-328) (Homo sapiens, UniProt Q9BT40); test: as above; assay type: biochemical; conditions: 20 µM diC8-PI(3,4,5)P3, 30 min
T2 construct: human INPP5K catalytic domain (amino acids 1–328, INPP5K-cd, UniProt ID: Q9BT40); His6-MBP (MBP amino acids 1–387) (N, cleaved yes); TEV protease site ENLYFQG (N, cleaved yes); made in house; host or cells: E. coli Rosetta2 (DE3)
T2 sequence (Q9BT40 1-328): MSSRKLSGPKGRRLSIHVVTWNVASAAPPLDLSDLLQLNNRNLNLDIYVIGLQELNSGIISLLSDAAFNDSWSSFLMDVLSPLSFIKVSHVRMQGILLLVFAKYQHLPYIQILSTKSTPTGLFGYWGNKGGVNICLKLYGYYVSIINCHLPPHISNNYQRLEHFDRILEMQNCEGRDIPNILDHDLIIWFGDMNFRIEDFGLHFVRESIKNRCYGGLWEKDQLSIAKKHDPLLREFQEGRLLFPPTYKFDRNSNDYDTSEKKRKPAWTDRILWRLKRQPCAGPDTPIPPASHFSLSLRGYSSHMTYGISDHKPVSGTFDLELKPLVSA
Text: as §1

T1 sequence (Q9BT40 other isoform, or with tags, fused parts or gaps with the stated changes): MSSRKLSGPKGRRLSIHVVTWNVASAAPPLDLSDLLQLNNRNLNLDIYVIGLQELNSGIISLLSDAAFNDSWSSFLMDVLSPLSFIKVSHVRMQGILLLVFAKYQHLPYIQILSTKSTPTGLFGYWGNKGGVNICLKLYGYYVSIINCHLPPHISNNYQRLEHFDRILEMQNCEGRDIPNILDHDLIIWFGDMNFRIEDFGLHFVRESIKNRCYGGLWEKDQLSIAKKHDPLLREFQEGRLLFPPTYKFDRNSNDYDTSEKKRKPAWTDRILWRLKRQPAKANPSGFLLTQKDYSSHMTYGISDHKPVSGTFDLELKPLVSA

**Q.** Which IC50 [1] does the source give for CC(C)c1sc(NC(=O)c2ccccc2)c(C(=O)O)c1-c1ccccc1 [CPD-1] here?
**A.** 2900 nM

**Q.** What about the IC50 [2] of the same compound?
**A.** 2300 nM
